Patent US9173392B2, “Emulsifiable concentrate” (priority 2010, dated 2015)

Tests used:
[1] = Determination of VOC content (percentage weight loss of solvent aliquot on heating); type: physicochemical; details: 10 mg aliquot, furnace 35° C. raised 5° C. per minute, held isothermally at 115° C.
Protocol: A series of solvents are evaluated to determine a content of volatile organic compounds (VOCs) and suitability for use in this invention. More specifically, the 1,2-cyclohexanedicarboxylic acid diisononyl ester (Hexamoll® Dinch) of this invention is evaluated as Solvent 1. Twelve additional comparative solvents (Comparative Solvents 1-12) are also evaluated.
After addition of the aliquots to the pans, the pans are placed in a furnace at 35° C. The temperature of the furnace is then raised at a rate of 5° C. per minute and held isothermally at 115° C. When mass loss stabilizes at less than 0.5% for 5 minutes, the temperature is then held at 115° C. for an additional 15 minutes. Total run times average about 80 minutes. The results of the VOC content evaluations are set forth in Table 1 below wherein all values represent percentage weight loss of the aliquot and correlate to approximate VOC content.

[2] = Active component solubility in solvents at 10° C. and 54° C. (visual, HPLC for undissolved samples); details: for Approximate Percent (%) Solubility Determination of Active Components in Solvents (Malathion At 10° C.) / Approximate Percent (%) Solubility Determination of Active Components in Solvents (Malathion At 54° C.): 20 g Malathion in 10 g solvent; for Approximate Percent (%) Solubility Determination of Active Components in Solvents (Malathion At 10° C.) / Approximate Percent (%) Solubility Determination of Active Components in Solvents (Metolachlor At 10° C.): about two weeks at 10° C.; for Approximate Percent (%) Solubility Determination of Active Components in Solvents (Malathion At 10° C.) / Approximate Percent (%) Solubility Determination of Active Components in Solvents (Malathion At 54° C.) / Approximate Percent (%) Solubility Determination of Active Components in Solvents (Metolachlor At 10° C.) / Approximate Percent (%) Solubility Determination of Active Components in Solvents (Metolachlor At 54° C.): totally soluble = no particles visually detectable; for Approximate Percent (%) Solubility Determination of Active Components in Solvents (Malathion At 54° C.) / Approximate Percent (%) Solubility Determination of Active Components in Solvents (Metolachlor At 54° C.): about two weeks at 54° C.; for Approximate Percent (%) Solubility Determination of Active Components in Solvents (Metolachlor At 10° C.) / Approximate Percent (%) Solubility Determination of Active Components in Solvents (Metolachlor At 54° C.): 20 g Metolachlor in 10 g solvent; for miscible in the Solvent 1 up to: active component in Solvent 1 (Examples 1-3)

SMILES	% Total Weight Loss = VOC Content [1] [%]	Approximate Percent (%) Solubility Determination of Active Components in Solvents (Malathion At 10° C.) [2]	Approximate Percent (%) Solubility Determination of Active Components in Solvents (Malathion At 54° C.) [2]	Approximate Percent (%) Solubility Determination of Active Components in Solvents (Metolachlor At 10° C.) [2]	Approximate Percent (%) Solubility Determination of Active Components in Solvents (Metolachlor At 54° C.) [2]	miscible in the Solvent 1 up to [2]
CC1COC(=O)O1 (stereo not shown) [Comparative Solvent 5, propylene carbonate]	100	Totally Soluble	Totally Soluble	Totally Soluble	Totally Soluble	–
CC(O)CO (stereo not shown) [Comparative Solvent 7, propylene glycol]	100	Totally Soluble	Totally Soluble	Totally Soluble	Totally Soluble	–
COC(=O)CCCCC(=O)OC [Comparative Solvent 10, dimethyl adipate]	100	Totally Soluble	Totally Soluble	Totally Soluble	Totally Soluble	–
CCOC(=O)CC(SP(=S)(OC)OC)C(=O)OCC (stereo not shown) [Malathion]	–	–	–	–	–	approximately 66 weight percent
CCc1cccc(C)c1N(C(=O)CCl)C(C)COC (stereo not shown) [Metolachlor]	–	–	–	–	–	approximately 66 weight percent
CC(C)CCCCCCOC(=O)C1CCCCC1C(=O)OCCCCCCC(C)C (stereo not shown) [Solvent 1, 1,2-cyclohexanedicarboxylic acid diisononyl ester]	0.33	Totally Soluble	Totally Soluble	Totally Soluble	Totally Soluble	–
